From ChEMBL document CHEMBL4811230, “In Planta Discovery and Chemical Synthesis of Bracelet Cystine Knot Peptides from Rinorea bengalensis” (J Nat Prod, 2021) come the findings set out here.

One data set relates to MDA-MB-231. In words: Cytotoxicity against human MDA-MB-231 cells assessed as decrease in cell viability measured after 24 hrs by MTT assay. Format: functional. In general terms: Tetrazolium dyes change colour on reduction, which living cells bring about.
The subject of a further data set is PC-3. In words: Cytotoxicity against human PC-3 cells assessed as decrease in cell viability measured after 24 hrs by MTT assay. Format: functional.
Data set [1] is described as follows: Hemolytic activity against human RBC incubated for 1 hr. Format: ADME, cell-based, Erythrocyte. The settings on record: red blood cells (erythrocytes), read-out: CC50.
The nature of data set [2]: Cytotoxicity against HUVEC cells assessed as decrease in cell viability measured after 24 hrs by MTT assay. The class given is cell-based. The settings on record: human.

Starred links: 1 amine or outer side, 2 acyl side, 3 side chain; linkers in the order of their positions; H or OH if unused. Positions of bridges follow the written chain, without caps; N, C: chain ends. Non-standard residues stand in square brackets, D forms with d. Residues, ends and D or L forms follow the SMILES beside them. X1 = CN[C@@H](C)[C@H](N[*:1])C(=O)[*:2]

Consider `CC(C)C[C@@H]1NC(=O)CNC(=O)[C@H](CC(N)=O)NC(=O)[C@H](CCCNC(=N)N)NC(=O)[C@H]([C@@H](C)O)NC(=O)[C@@H]2CSSC[C@@H]3NC(=O)[C@H]([C@@H](C)O)NC(=O)CNC(=O)CNC(=O)[C@H](C(C)C)NC(=O)[C@@H]4CSSC[C@H](NC(=O)[C@H]([C@@H](C)O)NC(=O)[C@H](CSSC[C@H](NC(=O)[C@H](C(C)C)NC(=O)[C@@H]5CCCN5C1=O)C(=O)NCC(=O)N[C@@H](CCC(=O)O)C(=O)N[C@@H]([C@@H](C)O)C(=O)N4)NC(=O)CNC(=O)[C@@H]1CCCN1C(=O)[C@H]([C@@H](C)O)NC(=O)[C@H](CC(N)=O)NC3=O)C(=O)N[C@@H](CO)C(=O)N[C@@H](Cc1c[nH]c3ccccc13)C(=O)N1CCC[C@H]1C(=O)N[C@@H](C(C)C)C(=O)N2`, for which the figures for the CC50 in the data set on MDA-MB-231 and with PC-3 were 5100 nM and 3100 nM, respectively.
Take `CC[C@H](C)[C@@H]1NC(=O)[C@H](CC(C)C)NC(=O)[C@H](C)NC(=O)[C@H]([C@H](C)O)NC(=O)[C@H](C(C)C)NC(=O)[C@H]([C@H](C)O)NC(=O)[C@H](CS)NC(=O)[C@@H]2CCCN2C1=O`: in data set [1], the HC50 at 1 h is 21.9 µM. In addition, the 50% cytotoxic concentration (CC50) in the data set with MDA-MB-231 came to 1500 nM; in the data set with PC-3, 700 nM. Moreover, the CC50 at 24 h in data set [2] was found to be 900 nM.
Take `CC[C@H](C)[C@@H]1NC(=O)[C@@H]2CSSC[C@@H]3NC(=O)[C@H](C(C)C)NC(=O)[C@H](CCCCN)NC(=O)[C@H](CC(=O)NN)NC(=O)[C@H](CCCCN)NC(=O)[C@@H]4CSSC[C@H](NC(=O)[C@H](CO)NC(=O)[C@H](CCC(=O)O)NC(=O)CNC(=O)[C@H](CSSC[C@H](NC(=O)CNC(=O)[C@H]([C@@H](C)CC)NC(=O)[C@H](C(C)C)NC(=O)[C@H](CCC(N)=O)NC(=O)[C@H](CO)NC1=O)C(=O)N[C@@H](CCCCN)C(=O)N4)NC(=O)[C@@H]1CCCN1C(=O)[C@H]([C@@H](C)CC)NC(=O)[C@H](C)NC(=O)[C@H](CCCNC(=N)N)NC(=O)[C@H](Cc1ccc(O)cc1)NC3=O)C(=O)N[C@@H](C(C)C)C(=O)N[C@@H](Cc1ccc(O)cc1)C(=O)N[C@@H]([C@@H](C)CC)C(=O)N1CCC[C@H]1C(=O)N2`: the CC50 in the data set on MDA-MB-231 was 2200 nM; in the data set with PC-3, 1500 nM. The CC50 at 24 h in data set [2] was determined as 1000 nM.
For `CC[C@H](C)[C@@H]1CC(=O)[C@H](C)NC(=O)[C@H](CCCNC(=N)N)NC(=O)[C@H](Cc2ccc(O)cc2)NC(=O)[C@@H]2CSSC[C@@H]3NC(=O)[C@@H]4CCCN4C(=O)[C@H]([C@@H](C)CC)NC(=O)[C@H](Cc4ccc(O)cc4)NC(=O)[C@H](C(C)C)NC(=O)[C@@H]4CSSC[C@H](NC(=O)[C@H](CO)NC(=O)[C@H](CSSC[C@H](NC(=O)[C@@H]5CCCN5C1=O)C(=O)NCC(=O)N[C@@H](CCC(=O)O)C(=O)N[C@@H](CO)C(=O)N4)NC(=O)CNC(=O)[C@H]([C@@H](C)CC)NC(=O)[C@H](C)NC(=O)[C@H](C)NC(=O)[C@H]([C@H](C)O)NC(=O)[C@H](CC(C)C)NC3=O)C(=O)N[C@@H](CCCCN)C(=O)N[C@@H](CC(N)=O)C(=O)N[C@@H](CCCCN)C(=O)N[C@@H](C(C)C)C(=O)N2`, in that order: 600 nM, 300 nM and 200 nM.
In the case of `CC[C@H](C)[C@@H]1NC(=O)[C@H](C)NC(=O)[C@H](CO)NC(=O)[C@H](CO)NC(=O)[C@H]([C@@H](C)CC)NC(=O)[C@@H]2CSSC[C@@H]3NC(=O)[C@H](C(C)C)NC(=O)[C@H](CCCCN)NC(=O)[C@H](CO)NC(=O)[C@H](CCCCN)NC(=O)[C@@H]4CSSC[C@H](NC(=O)[C@H](CO)NC(=O)[C@H](CCC(=O)O)NC(=O)CNC(=O)[C@H](CSSC[C@H](NC(=O)CNC1=O)C(=O)N[C@@H](CO)C(=O)N4)NC(=O)[C@@H]1CCCN1C(=O)[C@H]([C@@H](C)CC)NC(=O)CNC(=O)[C@H](CC(N)=O)NC(=O)[C@H](CCCNC(=N)N)NC(=O)[C@H](Cc1ccc(O)cc1)NC3=O)C(=O)N[C@@H](C(C)C)C(=O)N[C@@H](Cc1c[nH]c3ccccc13)C(=O)N[C@@H]([C@@H](C)CC)C(=O)N1CCC[C@H]1C(=O)N2` (cyclo(AIGCSCKSKVCYRNGIPCGESCVWIPCISS); disulfide 4-18, 6-22, 11-27), the HC50 at 1 h in data set [1] stood at 18.5 µM. Further, the CC50 in the data set with MDA-MB-231 worked out at 1100 nM; with PC-3 it was 600 nM. The CC50 at 24 h in data set [2] came out at 500 nM.
Regarding `CC[C@H](C)[C@@H]1NC(=O)[C@@H]2CSSC[C@@H]3NC(=O)[C@H](C(C)C)NC(=O)[C@H](CCCCN)NC(=O)[C@H](CC(N)=O)NC(=O)[C@H](CCC(N)=O)NC(=O)[C@@H]4CSSC[C@H](NC(=O)[C@H](CO)NC(=O)[C@H](CCC(=O)O)NC(=O)CNC(=O)[C@H](CSSC[C@H](NC(=O)CNC(=O)[C@H]([C@H](C)NC)NC(=O)[C@H](C(C)C)NC(=O)[C@H](C)NC(=O)[C@H](CO)NC1=O)C(=O)N[C@@H](CCCCN)C(=O)N4)NC(=O)[C@@H]1CCCN1C(=O)[C@H]([C@@H](C)CC)NC(=O)[C@H](C)NC(=O)[C@H](CCCNC(=N)N)NC(=O)[C@H](Cc1ccc(O)cc1)NC3=O)C(=O)N[C@@H](C(C)C)C(=O)N[C@@H](Cc1ccc(O)cc1)C(=O)N[C@@H]([C@@H](C)CC)C(=O)N1CCC[C@H]1C(=O)N2` (cyclo(AIPCGESCVYIPCISAV[X1]GCKCQNKVCYR); disulfide 4-20, 8-22, 13-27) [listing 1 of 2 here], the HC50 at 1 h in data set [1] amounted to 20.1 µM.
Consider `CC[C@H](C)[C@@H]1NC(=O)[C@@H]2CSSC[C@@H]3NC(=O)[C@H](C(C)C)NC(=O)[C@H](CCCCN)NC(=O)[C@H](CC(N)=O)NC(=O)[C@H](CCC(N)=O)NC(=O)[C@@H]4CSSC[C@H](NC(=O)[C@H](CO)NC(=O)[C@H](CCC(=O)O)NC(=O)CNC(=O)[C@H](CSSC[C@H](NC(=O)CNC(=O)[C@H]([C@H](C)NC)NC(=O)[C@H](C(C)C)NC(=O)[C@H](C)NC(=O)[C@H](CO)NC1=O)C(=O)N[C@@H](CCCCN)C(=O)N4)NC(=O)[C@@H]1CCCN1C(=O)[C@H]([C@@H](C)CC)NC(=O)[C@H](C)NC(=O)[C@H](CCCNC(=N)N)NC(=O)[C@H](Cc1ccc(O)cc1)NC3=O)C(=O)N[C@@H](C(C)C)C(=O)N[C@@H](Cc1ccc(O)cc1)C(=O)N[C@@H]([C@@H](C)CC)C(=O)N1CCC[C@H]1C(=O)N2` (cyclo(AIPCGESCVYIPCISAV[X1]GCKCQNKVCYR); disulfide 4-20, 8-22, 13-27) [listing 2 of 2 here], for which the values for the CC50 with MDA-MB-231 and in the data set on PC-3 were 2300 nM and 1200 nM, respectively.
Consider `CC[C@H](C)[C@@H]1NC(=O)[C@@H]2CSSC[C@@H]3NC(=O)[C@H](C(C)C)NC(=O)[C@H](CCCCN)NC(=O)[C@H](CC(N)=O)NC(=O)[C@H](CCCCN)NC(=O)[C@@H]4CSSC[C@H](NC(=O)[C@H](CO)NC(=O)[C@H](CCC(=O)O)NC(=O)CNC(=O)[C@H](CSSC[C@H](NC(=O)CNC(=O)[C@H]([C@@H](C)CC)NC(=O)[C@H](C(C)C)NC(=O)[C@H](CO)NC(=O)[C@H](CO)NC1=O)C(=O)N[C@@H](CO)C(=O)N4)NC(=O)[C@@H]1CCCN1C(=O)[C@H]([C@@H](C)CC)NC(=O)[C@H](C)NC(=O)[C@H](CCCNC(=N)N)NC(=O)[C@H](Cc1ccc(O)cc1)NC3=O)C(=O)N[C@@H](C(C)C)C(=O)N[C@@H](Cc1ccc(O)cc1)C(=O)N[C@@H]([C@@H](C)CC)C(=O)N1CCC[C@H]1C(=O)N2` (cyclo(AIPCGESCVYIPCISSVIGCSCKNKVCYR); disulfide 4-20, 8-22, 13-27), for which, in data set [1], the HC50 at 1 h was found to be 8.8 µM. Besides, the CC50 stood at 800 nM in the data set with MDA-MB-231 and 500 nM with PC-3.
On to `CC[C@H](C)[C@@H]1NC(=O)[C@H](CCCNC(=N)N)NC(=O)CNC(=O)[C@H](CCCCN)NC(=O)[C@@H]2CSSC[C@@H]3NC(=O)[C@H](CO)NC(=O)[C@H](CCC(=O)O)NC(=O)CNC(=O)[C@@H]4CSSC[C@H](NC(=O)CNC(=O)[C@H]([C@@H](C)CC)NC(=O)[C@H](C(C)C)NC(=O)[C@H](CO)NC(=O)[C@H]([C@@H](C)O)NC(=O)[C@H](Cc5ccccc5)NC(=O)[C@H](CSSC[C@H](NC1=O)C(=O)N[C@@H](C(C)C)C(=O)N[C@@H](CCCNC(=N)N)C(=O)N[C@@H](Cc1ccccc1)C(=O)N[C@@H](CCC(N)=O)C(=O)N4)NC(=O)[C@H](Cc1ccc(O)cc1)NC(=O)[C@H]([C@@H](C)O)NC(=O)[C@H]([C@@H](C)O)NC(=O)[C@H]([C@@H](C)CC)NC(=O)[C@H](CCSC)NC(=O)CNC3=O)C(=O)N[C@@H](CO)C(=O)N2` (cyclo(CFTSVIGCSCKGRICVRFQCGESCGMITTY); disulfide 1-15, 8-20, 10-24) [listing 1 of 2 here], for which the HC50 at 1 h in data set [1] was above 33 µM. Besides, the CC50 at 24 h in data set [2] amounted to 1200 nM.
`CC[C@H](C)[C@@H]1NC(=O)[C@H](CCCNC(=N)N)NC(=O)CNC(=O)[C@H](CCCCN)NC(=O)[C@@H]2CSSC[C@@H]3NC(=O)[C@H](CO)NC(=O)[C@H](CCC(=O)O)NC(=O)CNC(=O)[C@@H]4CSSC[C@H](NC(=O)CNC(=O)[C@H]([C@@H](C)CC)NC(=O)[C@H](C(C)C)NC(=O)[C@H](CO)NC(=O)[C@H]([C@@H](C)O)NC(=O)[C@H](Cc5ccccc5)NC(=O)[C@H](CSSC[C@H](NC1=O)C(=O)N[C@@H](C(C)C)C(=O)N[C@@H](CCCNC(=N)N)C(=O)N[C@@H](Cc1ccccc1)C(=O)N[C@@H](CCC(N)=O)C(=O)N4)NC(=O)[C@H](Cc1ccc(O)cc1)NC(=O)[C@H]([C@@H](C)O)NC(=O)[C@H]([C@@H](C)O)NC(=O)[C@H]([C@@H](C)CC)NC(=O)[C@H](CCSC)NC(=O)CNC3=O)C(=O)N[C@@H](CO)C(=O)N2` (cyclo(CFTSVIGCSCKGRICVRFQCGESCGMITTY); disulfide 1-15, 8-20, 10-24) [listing 2 of 2 here]: the CC50 in the data set with MDA-MB-231 came to 4100 nM; in the data set on PC-3 it was 1300 nM.

As a reminder, the CC50 is the concentration giving 50% cytotoxicity.
